Assay results reported in ChEMBL document CHEMBL1201861, “Genomics of Drug Sensitity in Cancer screening data, Wellcome Trust Sanger Institute”.

How the values were obtained:
Assay in all cases: cells
Conditions in all cases: Homo sapiens
NCI-H747 = type: functional, cell-based;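 note: growth inhibition of human NCI-H747 cells, read out by a cell viability assay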
Description: SANGER: Inhibition of human NCI-H747 cell growth in a cell viability assay.

EW-3 = type: functional, cell-based;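 note: cell viability assay read-out, IC50 reflects inhibition of growth of the EW-3 cells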
Description: SANGER: Inhibition of human EW-3 cell growth in a cell viability assay.

EKVX = type: functional, cell-based;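 note: growth inhibition of human EKVX cells, read out with a cell viability assay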
Description: SANGER: Inhibition of human EKVX cell growth in a cell viability assay.

A704 = type: functional, cell-based;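 note: growth inhibition of human A704 cells, read out with a cell viability assay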
Description: SANGER: Inhibition of human A704 cell growth in a cell viability assay.

GAK = type: functional, cell-based;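 note: cell growth inhibition read out by a cell viability assay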
Description: SANGER: Inhibition of human GAK cell growth in a cell viability assay.

IST-MES1 = type: functional, cell-based;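 note: growth inhibition of IST-MES1 cells, measured with a cell viability assay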
Description: SANGER: Inhibition of human IST-MES1 cell growth in a cell viability assay.

SCH = type: functional, cell-based;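 note: growth inhibition of human SCH cells, read out in a cell viability assay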
Description: SANGER: Inhibition of human SCH cell growth in a cell viability assay.

RH-1 = type: functional, cell-based;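 note: growth inhibition of human RH-1 cells, read out with a cell viability assay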
Description: SANGER: Inhibition of human RH-1 cell growth in a cell viability assay.

KM-H2 = type: functional, cell-based;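 note: growth inhibition of KM-H2 cells, read out by a cell viability assay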
Description: SANGER: Inhibition of human KM-H2 cell growth in a cell viability assay.

HDLM-2 = type: functional, cell-based;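 note: cell viability assay measuring suppression of HDLM-2 proliferation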
Description: SANGER: Inhibition of human HDLM-2 cell growth in a cell viability assay.

GI-1 = type: functional, cell-based;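 note: growth inhibition of human GI-1 cells, measured with a cell viability readout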
Description: SANGER: Inhibition of human GI-1 cell growth in a cell viability assay.

D-263MG = type: functional, cell-based
Description: SANGER: Inhibition of human D-263MG cell growth in a cell viability assay.

TE-12 = type: functional, cell-based;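 note: growth inhibition of TE-12 cells, read out by a cell viability assay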
Description: SANGER: Inhibition of human TE-12 cell growth in a cell viability assay.

C2BBe1 = type: functional, cell-based;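 note: growth inhibition of C2BBe1 cells, read out through a viability assay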
Description: SANGER: Inhibition of human C2BBe1 cell growth in a cell viability assay.

SW 954 = type: functional, cell-based;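 note: growth inhibition of SW954 human cancer cells, read out as cell viability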
Description: SANGER: Inhibition of human SW954 cell growth in a cell viability assay.

U-87 MG = type: functional, cell-based, U-87MG ATCC;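 note: growth inhibition of the cells measured with a viability assay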
Description: SANGER: Inhibition of human U-87-MG cell growth in a cell viability assay.

no-10 = type: functional, cell-based;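 note: growth inhibition of no-10 cells, read out with a cell viability assay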
Description: SANGER: Inhibition of human no-10 cell growth in a cell viability assay.

SBC-1 = type: functional, cell-based;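 note: cell viability assay measuring growth inhibition of the SBC-1 cell line, IC50 being the concentration that halves growth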
Description: SANGER: Inhibition of human SBC-1 cell growth in a cell viability assay.

EW-11 = type: functional, cell-based;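 note: growth inhibition of human EW-11 cells, measured with a cell viability assay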
Description: SANGER: Inhibition of human EW-11 cell growth in a cell viability assay.

COLO-824 = type: functional, cell-based
Description: SANGER: Inhibition of human COLO-824 cell growth in a cell viability assay.

NB10 = type: functional, cell-based;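 note: growth inhibition of NB10 cells, read out by a cell viability assay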
Description: SANGER: Inhibition of human NB10 cell growth in a cell viability assay.

HAL-01 = type: functional, cell-based;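 note: growth inhibition of human HAL-01 cells, read out with a cell viability assay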
Description: SANGER: Inhibition of human HAL-01 cell growth in a cell viability assay.

DOHH-2 = type: functional, cell-based;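 note: growth inhibition of human DOHH-2 cells, read out with a cell viability assay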
Description: SANGER: Inhibition of human DOHH-2 cell growth in a cell viability assay.

K5 = type: functional, cell-based
Description: SANGER: Inhibition of human K5 cell growth in a cell viability assay.

EW-13 = type: functional, cell-based;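 note: growth inhibition of EW-13 cells, read out with a cell viability assay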
Description: SANGER: Inhibition of human EW-13 cell growth in a cell viability assay.

HEL = type: functional, cell-based;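 note: growth inhibition of HEL cells, read out with a cell viability assay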
Description: SANGER: Inhibition of human HEL cell growth in a cell viability assay.

NCI-H23 = type: functional, cell-based;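 note: cell viability assay measuring growth inhibition of NCI-H23 cells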
Description: SANGER: Inhibition of human NCI-H23 cell growth in a cell viability assay.

J-RT3-T3-5 = type: functional, cell-based;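 note: cell viability assay measuring growth inhibition of human J-RT3-T3-5 cells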
Description: SANGER: Inhibition of human J-RT3-T3-5 cell growth in a cell viability assay.

COR-L88 = type: functional, cell-based;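 note: growth inhibition of COR-L88 cells, read out with a cell viability assay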
Description: SANGER: Inhibition of human COR-L88 cell growth in a cell viability assay.

SH-4 = type: functional, cell-based;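 note: growth inhibition of SH-4 cells, read out with a cell viability assay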
Description: SANGER: Inhibition of human SH-4 cell growth in a cell viability assay.

COLO-800 = type: functional, cell-based;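 note: growth inhibition of COLO-800 cells, read out with a cell viability assay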
Description: SANGER: Inhibition of human COLO-800 cell growth in a cell viability assay.

KE-37 = type: functional, cell-based;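 note: growth inhibition of KE-37 cells, read out with a cell viability assay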
Description: SANGER: Inhibition of human KE-37 cell growth in a cell viability assay.

HD-MY-Z = type: functional, cell-based;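 note: growth inhibition of HD-MY-Z cells, read out with a cell viability assay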
Description: SANGER: Inhibition of human HD-MY-Z cell growth in a cell viability assay.

MPP-89 = type: functional, cell-based;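 note: growth inhibition of human MPP-89 cells, read out with a cell viability assay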
Description: SANGER: Inhibition of human MPP-89 cell growth in a cell viability assay.

NCI-H1770 = type: functional, cell-based;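 note: growth inhibition of NCI-H1770 cells determined with a viability readout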
Description: SANGER: Inhibition of human NCI-H1770 cell growth in a cell viability assay.

NEC8 = type: functional, cell-based;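 note: growth inhibition of human NEC8 cells, read out by a cell viability assay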
Description: SANGER: Inhibition of human NEC8 cell growth in a cell viability assay.

no-11 = type: functional, cell-based;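 note: growth inhibition of human NO-11 cells, read out with a cell viability assay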
Description: SANGER: Inhibition of human no-11 cell growth in a cell viability assay.

MHH-NB-11 = type: functional, cell-based;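 note: growth inhibition of human MHH-NB-11 cells, read out by a cell viability assay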
Description: SANGER: Inhibition of human MHH-NB-11 cell growth in a cell viability assay.

ES6 = type: functional, cell-based;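 note: growth inhibition of human ES6 cells, read out with a cell viability assay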
Description: SANGER: Inhibition of human ES6 cell growth in a cell viability assay.

KU812 cell line = type: functional, cell-based;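 note: growth inhibition of KU812 cells, read out with a cell viability assay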
Description: SANGER: Inhibition of human KU812 cell growth in a cell viability assay.

SNU1 = type: functional, cell-based;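 note: growth inhibition of human NCI-SNU-1 cells, measured with a cell viability assay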
Description: SANGER: Inhibition of human NCI-SNU-1 cell growth in a cell viability assay.

NOS-1 = type: functional, cell-based;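 note: growth inhibition of the human NOS-1 cell line, read out with a cell viability assay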
Description: SANGER: Inhibition of human NOS-1 cell growth in a cell viability assay.

COLO-684 = type: functional, cell-based
Description: SANGER: Inhibition of human COLO-684 cell growth in a cell viability assay.

TE-5 = type: functional, cell-based;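 note: inhibition of cell growth, read out by a cell viability assay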
Description: SANGER: Inhibition of human TE-5 cell growth in a cell viability assay.

QIMR-WIL = type: functional, cell-based;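 note: growth inhibition of QIMR-WIL cells, read out with a cell viability assay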
Description: SANGER: Inhibition of human QIMR-WIL cell growth in a cell viability assay.

COLO-668 = type: functional, cell-based
Description: SANGER: Inhibition of human COLO-668 cell growth in a cell viability assay.

LNCaP-Clone-FGC = type: functional, cell-based
Description: SANGER: Inhibition of human LNCaP-Clone-FGC cell growth in a cell viability assay.

HCC2218 = type: functional, cell-based;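 note: cell viability assay read-out, with IC50 given as the concentration that inhibits growth of the cell line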
Description: SANGER: Inhibition of human HCC2218 cell growth in a cell viability assay.

A498 = type: functional, cell-based;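 note: growth inhibition of human A498 cells, read out with a cell viability assay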
Description: SANGER: Inhibition of human A498 cell growth in a cell viability assay.

ETK-1 = type: functional, cell-based;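 note: growth inhibition of human ETK-1 cells, read out with a cell viability assay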
Description: SANGER: Inhibition of human ETK-1 cell growth in a cell viability assay.

AM-38 = type: functional, cell-based;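 note: growth inhibition of AM-38 cells of human origin, read out by a cell viability assay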
Description: SANGER: Inhibition of human AM-38 cell growth in a cell viability assay.

Lu-65 = type: functional, cell-based;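 note: growth inhibition of Lu-65 cancer cells, read out by a cell viability assay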
Description: SANGER: Inhibition of human LU-65 cell growth in a cell viability assay.

SW872 = type: functional, cell-based;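 note: growth inhibition of SW872 cells, read out by a viability assay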
Description: SANGER: Inhibition of human SW872 cell growth in a cell viability assay.

SHP77 = type: functional, cell-based, SHP-77;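 note: growth inhibition of human SHP-77 cells measured by a cell viability assay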
Description: SANGER: Inhibition of human SHP-77 cell growth in a cell viability assay.

LAMA-84 = type: functional, cell-based;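 note: growth inhibition of LAMA-84 cells, read out with a cell viability assay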
Description: SANGER: Inhibition of human LAMA-84 cell growth in a cell viability assay.

SF-126 = type: functional, cell-based
Description: SANGER: Inhibition of human SF126 cell growth in a cell viability assay.

TE-1 = type: functional, cell-based
Description: SANGER: Inhibition of human TE-1 cell growth in a cell viability assay.

IST-MEL1 = type: functional, cell-based
Description: SANGER: Inhibition of human IST-MEL1 cell growth in a cell viability assay.

TGBC1TKB = type: functional, cell-based
Description: SANGER: Inhibition of human TGBC1TKB cell growth in a cell viability assay.

NCI-H69 = type: functional, cell-based
Description: SANGER: Inhibition of human NCI-H69 cell growth in a cell viability assay.

ATN-1 = type: functional, cell-based
Description: SANGER: Inhibition of human ATN-1 cell growth in a cell viability assay.

SW684 = type: functional, cell-based
Description: SANGER: Inhibition of human SW684 cell growth in a cell viability assay.

SK-MEL-2 = type: functional, cell-based
Description: SANGER: Inhibition of human SK-MEL-2 cell growth in a cell viability assay.

ES8 = type: functional, cell-based
Description: SANGER: Inhibition of human ES8 cell growth in a cell viability assay.

EW-16 = type: functional, cell-based
Description: SANGER: Inhibition of human EW-16 cell growth in a cell viability assay.

KNS-81-FD = type: functional, cell-based
Description: SANGER: Inhibition of human KNS-81-FD cell growth in a cell viability assay.

Compound: C/C=C(/C)C(=O)O[C@H]1C(C)=C2[C@H]([C@@H]1OC(=O)CCCCCCC)[C@@](C)(OC(C)=O)C[C@H](OC(=O)CCC)[C@@]1(O)[C@H]2OC(=O)[C@@]1(C)O [THAPSIGARGIN]
- IC50 (NCI-H747): 100 nM
- IC50 (EW-3): 118 nM
- IC50 (EKVX): 250 nM
- IC50 (A704): 247 nM
- IC50 (GAK): 199 nM
- IC50 (IST-MES1): 138 nM
- IC50 (SCH): > 512 nM
- IC50 (RH-1): 43.4 nM
- IC50 (KM-H2): < 2 nM
- IC50 (HDLM-2): 215 nM
- IC50 (GI-1): 0.549 nM
- IC50 (D-263MG): 37.2 nM
- IC50 (TE-12): 10.6 nM
- IC50 (C2BBe1): 29.3 nM
- IC50 (SW 954): 15.6 nM
- IC50 (U-87 MG): 132 nM
- IC50 (no-10): > 512 nM
- IC50 (SBC-1): 48 nM
- IC50 (EW-11): 54.8 nM
- IC50 (COLO-824): 64.6 nM
- IC50 (NB10): 63.2 nM
- IC50 (HAL-01): 301 nM
- IC50 (DOHH-2): 22.3 nM
- IC50 (K5): > 512 nM
- IC50 (EW-13): 2.31 nM
- IC50 (HEL): 46.3 nM
- IC50 (NCI-H23): > 512 nM
- IC50 (J-RT3-T3-5): 141 nM
- IC50 (COR-L88): 266 nM
- IC50 (SH-4): 17.8 nM
- IC50 (COLO-800): 51.3 nM
- IC50 (KE-37): 7.53 nM
- IC50 (HD-MY-Z): 17.5 nM
- IC50 (MPP-89): 20 nM
- IC50 (NCI-H1770): 25.7 nM
- IC50 (NEC8): 11 nM
- IC50 (no-11): 58.9 nM
- IC50 (MHH-NB-11): 45.1 nM
- IC50 (ES6): < 2 nM
- IC50 (KU812 cell line): 2.12 nM
- IC50 (SNU1): 13.6 nM
- IC50 (NOS-1): < 2 nM
- IC50 (COLO-684): 345 nM
- IC50 (TE-5): > 512 nM
- IC50 (QIMR-WIL): > 512 nM
- IC50 (COLO-668): 19.7 nM
- IC50 (LNCaP-Clone-FGC): 32.2 nM
- IC50 (HCC2218): 58.9 nM
- IC50 (A498): > 512 nM
- IC50 (ETK-1): < 2 nM
- IC50 (AM-38): 14.8 nM
- IC50 (Lu-65): 8.49 nM
- IC50 (SW872): 5.78 nM
- IC50 (SHP77): 59.1 nM
- IC50 (LAMA-84): 19.4 nM
- IC50 (SF-126): 38.3 nM
- IC50 (TE-1): 22 nM
- IC50 (IST-MEL1): 0.788 nM
- IC50 (TGBC1TKB): 0.509 nM
- IC50 (NCI-H69): 56.7 nM
- IC50 (ATN-1): 32 nM
- IC50 (SW684): > 512 nM
- IC50 (SK-MEL-2): < 2 nM
- IC50 (ES8): 18.1 nM
- IC50 (EW-16): 0.598 nM
- IC50 (KNS-81-FD): > 512 nM

Compound: C[C@]1(c2nc3c(C(N)=O)cccc3[nH]2)CCCN1 [VELIPARIB]
- IC50 (NCI-H747): > 5000 nM
- IC50 (EW-3): > 5000 nM
- IC50 (EKVX): > 5000 nM
- IC50 (A704): > 5000 nM
- IC50 (GAK): > 5000 nM
- IC50 (IST-MES1): > 5000 nM
- IC50 (SCH): > 5000 nM
- IC50 (RH-1): > 5000 nM
- IC50 (KM-H2): > 5000 nM
- IC50 (HDLM-2): > 5000 nM
- IC50 (GI-1): > 5000 nM
- IC50 (D-263MG): > 5000 nM
- IC50 (TE-12): > 5000 nM
- IC50 (C2BBe1): > 5000 nM
- IC50 (SW 954): > 5000 nM
- IC50 (U-87 MG): > 5000 nM
- IC50 (no-10): > 5000 nM
- IC50 (SBC-1): > 5000 nM
- IC50 (EW-11): > 5000 nM
- IC50 (COLO-824): > 5000 nM
- IC50 (NB10): > 5000 nM
- IC50 (HAL-01): > 5000 nM
- IC50 (DOHH-2): > 5000 nM
- IC50 (K5): > 5000 nM
- IC50 (EW-13): > 5000 nM
- IC50 (HEL): > 5000 nM
- IC50 (NCI-H23): > 5000 nM
- IC50 (J-RT3-T3-5): > 5000 nM
- IC50 (COR-L88): > 5000 nM
- IC50 (SH-4): > 5000 nM
- IC50 (COLO-800): > 5000 nM
- IC50 (KE-37): > 5000 nM
- IC50 (HD-MY-Z): > 5000 nM
- IC50 (MPP-89): > 5000 nM
- IC50 (NCI-H1770): > 5000 nM
- IC50 (NEC8): > 5000 nM
- IC50 (no-11): > 5000 nM
- IC50 (MHH-NB-11): > 5000 nM
- IC50 (ES6): > 5000 nM
- IC50 (KU812 cell line): > 5000 nM
- IC50 (SNU1): > 5000 nM
- IC50 (NOS-1): > 5000 nM
- IC50 (COLO-684): > 5000 nM
- IC50 (TE-5): > 5000 nM
- IC50 (QIMR-WIL): > 5000 nM
- IC50 (COLO-668): > 5000 nM
- IC50 (LNCaP-Clone-FGC): > 5000 nM
- IC50 (HCC2218): > 5000 nM
- IC50 (A498): > 5000 nM
- IC50 (ETK-1): > 5000 nM
- IC50 (AM-38): > 5000 nM
- IC50 (Lu-65): > 5000 nM
- IC50 (SW872): > 5000 nM
- IC50 (SHP77): > 5000 nM
- IC50 (LAMA-84): > 5000 nM
- IC50 (SF-126): > 5000 nM
- IC50 (TE-1): > 5000 nM
- IC50 (IST-MEL1): > 5000 nM
- IC50 (TGBC1TKB): > 5000 nM
- IC50 (NCI-H69): > 5000 nM
- IC50 (ATN-1): > 5000 nM
- IC50 (SW684): > 5000 nM
- IC50 (SK-MEL-2): > 5000 nM
- IC50 (ES8): > 5000 nM
- IC50 (EW-16): > 5000 nM
- IC50 (KNS-81-FD): > 5000 nM

Compound: CC[C@]1(O)C[C@@H]2CN(CCc3c([nH]c4ccccc34)[C@@](C(=O)OC)(c3cc4c(cc3OC)N(C)[C@H]3[C@@](O)(C(=O)OC)[C@H](OC(C)=O)[C@]5(CC)C=CCN6CC[C@]43[C@@H]65)C2)C1 [VINBLASTINE]
- IC50 (NCI-H747): 81.2 nM
- IC50 (EW-3): 37.2 nM
- IC50 (EKVX): > 100 nM
- IC50 (A704): > 100 nM
- IC50 (GAK): > 100 nM
- IC50 (IST-MES1): 67.7 nM
- IC50 (SCH): 29.7 nM
- IC50 (RH-1): 3.4 nM
- IC50 (KM-H2): 5.34 nM
- IC50 (HDLM-2): > 100 nM
- IC50 (GI-1): 4.36 nM
- IC50 (D-263MG): 9.28 nM
- IC50 (TE-12): > 100 nM
- IC50 (C2BBe1): 16.9 nM
- IC50 (SW 954): 9.66 nM
- IC50 (U-87 MG): 30 nM
- IC50 (no-10): > 100 nM
- IC50 (SBC-1): 8.1 nM
- IC50 (EW-11): 7.15 nM
- IC50 (COLO-824): > 100 nM
- IC50 (NB10): 7.32 nM
- IC50 (HAL-01): > 100 nM
- IC50 (DOHH-2): 1.81 nM
- IC50 (K5): 4.68 nM
- IC50 (EW-13): 36.5 nM
- IC50 (HEL): 32.8 nM
- IC50 (NCI-H23): 5.71 nM
- IC50 (J-RT3-T3-5): 0.788 nM
- IC50 (COR-L88): 24.3 nM
- IC50 (SH-4): 43.5 nM
- IC50 (COLO-800): 3.34 nM
- IC50 (KE-37): 3.99 nM
- IC50 (HD-MY-Z): 3.33 nM
- IC50 (MPP-89): 30.3 nM
- IC50 (NCI-H1770): 28.5 nM
- IC50 (NEC8): 5.12 nM
- IC50 (no-11): 38.8 nM
- IC50 (MHH-NB-11): 38.9 nM
- IC50 (ES6): > 100 nM
- IC50 (KU812 cell line): 16.8 nM
- IC50 (SNU1): 1.62 nM
- IC50 (NOS-1): 40.9 nM
- IC50 (COLO-684): 7.67 nM
- IC50 (TE-5): 6.14 nM
- IC50 (QIMR-WIL): 8.95 nM
- IC50 (COLO-668): > 100 nM
- IC50 (LNCaP-Clone-FGC): 8.28 nM
- IC50 (HCC2218): 79.3 nM
- IC50 (A498): 5.94 nM
- IC50 (ETK-1): 5.79 nM
- IC50 (AM-38): 36.9 nM
- IC50 (Lu-65): > 100 nM
- IC50 (SW872): > 100 nM
- IC50 (SHP77): > 100 nM
- IC50 (LAMA-84): 7.01 nM
- IC50 (SF-126): 21.9 nM
- IC50 (TE-1): 10.9 nM
- IC50 (IST-MEL1): 4.53 nM
- IC50 (TGBC1TKB): 31.2 nM
- IC50 (NCI-H69): > 100 nM
- IC50 (ATN-1): 1.03 nM
- IC50 (SW684): > 100 nM
- IC50 (SK-MEL-2): 53.3 nM
- IC50 (ES8): 3.24 nM
- IC50 (EW-16): 7.83 nM
- IC50 (KNS-81-FD): 20.2 nM
